Key:
Test in all cases: relative viability (nuclei count vs DMSO), 5 days (fraction); higher = more cells survive
Tozasertib + Lapatinib = compound: Cc1cc(Nc2cc(N3CCN(C)CC3)nc(Sc3ccc(NC(=O)C4CC4)cc3)n2)n[nH]1 [Tozasertib] + CS(=O)(=O)CCNCc1ccc(-c2ccc3ncnc(Nc4ccc(OCc5cccc(F)c5)c(Cl)c4)c3c2)o1 [Lapatinib] (partner 2 µM)
Summary of the method: (§1)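 The day after seeding in 1536-well plates, lung cancer cell lines were treated by pin tool with a single drug, or with a fixed anchor-drug dose together with five library-drug doses (not always all listed) in √10 steps. After 5 days, a combined fix-and-stain solution (final 0.05% Triton X-100, 1% formaldehyde, 1 ug/ml Hoechst) was added. Nuclei counted on 4× images gave relative viability as treated counts over vehicle counts, reported as the median of duplicate plates.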

Tozasertib + Alpelisib = compound: Cc1cc(Nc2cc(N3CCN(C)CC3)nc(Sc3ccc(NC(=O)C4CC4)cc3)n2)n[nH]1 [Tozasertib] + Cc1nc(NC(=O)N2CCC[C@H]2C(N)=O)sc1-c1ccnc(C(C)(C)C(F)(F)F)c1 [Alpelisib] (partner 2 µM)
Summary of the method: as §1

Tozasertib + Dasatinib = compound: Cc1cc(Nc2cc(N3CCN(C)CC3)nc(Sc3ccc(NC(=O)C4CC4)cc3)n2)n[nH]1 [Tozasertib] + Cc1nc(Nc2ncc(C(=O)Nc3c(C)cccc3Cl)s2)cc(N2CCN(CCO)CC2)n1 [Dasatinib] (partner 0.075 µM)
Summary of the method: as §1

Tozasertib + Decitabine = compound: Cc1cc(Nc2cc(N3CCN(C)CC3)nc(Sc3ccc(NC(=O)C4CC4)cc3)n2)n[nH]1 [Tozasertib] + Nc1ncn([C@H]2C[C@H](O)[C@@H](CO)O2)c(=O)n1 [Decitabine] (partner 2 µM)
Summary of the method: as §1

Tozasertib + Vorinostat = compound: Cc1cc(Nc2cc(N3CCN(C)CC3)nc(Sc3ccc(NC(=O)C4CC4)cc3)n2)n[nH]1 [Tozasertib] + O=C(CCCCCCC(=O)Nc1ccccc1)NO [Vorinostat] (partner 1 µM)
Summary of the method: as §1

Cell Line | relative viability (Tozasertib + Lapatinib; first compound 0.004 µM) | relative viability (Tozasertib + Lapatinib; first compound 0.01265 µM) | relative viability (Tozasertib + Lapatinib; first compound 0.04 µM) | relative viability (Tozasertib + Lapatinib; first compound 0.1265 µM) | relative viability (Tozasertib + Alpelisib; first compound 0.004 µM) | relative viability (Tozasertib + Alpelisib; first compound 0.01265 µM) | relative viability (Tozasertib + Alpelisib; first compound 0.04 µM) | relative viability (Tozasertib + Alpelisib; first compound 0.1265 µM) | relative viability (Tozasertib + Dasatinib; first compound 0.004 µM) | relative viability (Tozasertib + Dasatinib; first compound 0.01265 µM) | relative viability (Tozasertib + Dasatinib; first compound 0.04 µM) | relative viability (Tozasertib + Dasatinib; first compound 0.1265 µM) | relative viability (Tozasertib + Decitabine; first compound 0.004 µM) | relative viability (Tozasertib + Decitabine; first compound 0.01265 µM) | relative viability (Tozasertib + Decitabine; first compound 0.04 µM) | relative viability (Tozasertib + Decitabine; first compound 0.1265 µM) | relative viability (Tozasertib + Vorinostat; first compound 0.01265 µM) | relative viability (Tozasertib + Vorinostat; first compound 0.04 µM) | relative viability (Tozasertib + Vorinostat; first compound 0.1265 µM) | relative viability (Tozasertib + Vorinostat; first compound 0.004 µM)
RERF-LC-KJ | 0.86 | 0.838 | 0.925 | 0.804 | 0.897 | 0.761 | 0.914 | 0.599 | 0.729 | 0.806 | 0.852 | 0.582 | 0.532 | 0.592 | 0.645 | 0.508 | 0.519 | 0.654 | 0.478 | 
SK-LU-1 | 1.25 | 1.06 | 1.08 | 0.651 | 1.27 | 1.02 | 1.19 | 0.561 | 0.183 | 0.191 | 0.188 | 0.146 | 0.653 | 0.678 |  | 0.649 | 0.788 | 0.82 | 0.34 | 0.893
SK-MES-1 | 0.477 | 0.468 | 0.514 | 0.438 | 0.967 | 0.746 | 0.894 | 0.535 | 0.358 | 0.336 | 0.342 | 0.356 | 0.319 | 0.376 | 0.434 | 0.316 | 1.1 | 1.19 | 0.525 | 1
SW 1573 | 1.03 | 1.23 | 1.21 | 1.05 | 0.751 | 0.674 | 0.615 | 0.702 | 0.505 | 0.43 | 0.361 | 0.0939 | 0.351 | 0.463 | 0.544 | 0.176 | 0.599 | 0.509 | 0.192 | 0.624
UMC-11 | 1.03 | 0.944 | 1.04 | 0.244 | 1.08 | 0.968 | 1.13 | 0.146 | 0.495 | 0.545 | 0.521 | 0.161 | 0.597 | 0.499 | 0.548 | 0.189 | 0.327 | 0.291 | 0.16 | 0.408
